Like-named read-outs stand apart in the source and are kept apart here.
Test system: caspase-3 cleavage
Details: 2.5 μg/ml; for suppression of hypoxia-induced caspase-3 cleavage after pulse dosing: 16 hours washout, hypoxia 0.5% O2 24 hours; for caspase-3 cleavage, both dosing protocols: continuous or pulse, hypoxia
Method: Cells were exposed to 0.5% O2 for 18 hours unless otherwise specified.

SMILES | suppression of hypoxia-induced caspase-3 cleavage after pulse dosing (12 hours pulse) | suppressive effect on caspase-3 cleavage vs washout period length (12 hours pulse, washout 0, 12, 24 hours, hypoxia 0.5% O2 18 hours) | caspase-3 cleavage, both dosing protocols | suppression of hypoxia-induced caspase-3 cleavage after pulse dosing (12 hours pulse, listed as doxycycline)
C[C@H]1c2ccc(C(C)(C)C)c(O)c2C(O)=C2C(=O)[C@]3(O)C(O)=C(C(N)=O)C(=O)[C@@H](N(C)C)[C@@H]3[C@@H](O)[C@@H]21 [9-TB, 9-t-butyl doxycycline] | less impressive | augmented by shorter washout periods with a sharp decline occurring between the 12 and 24-hour chase periods | both drugs interfered with caspase-3 cleavage | –
CC1c2cccc(O)c2C(=O)C2=C(O)C3(O)C(=O)C(C(N)=O)=C(O)C(N(C)C)C3C(O)C21 (stereo not drawn) [Dox, 4-[Dimethylamino]-1,4,4a,5,5a,6,11,12a-octahydro-3,5,10,12,12apentahydroxy-6-methyl-1,11-dioxo-2-naphthacenecarboxamide] | ameliorated dox-mediated suppression | – | both drugs interfered with caspase-3 cleavage | did ameliorate its suppressive effects on caspase cleavage
